Assay results from patent US10137110B2, “1-cyclohexyl-2-phenylaminobenzimidazoles as mIDH1 inhibitors for the treatment of tumors” (Bayer Pharma Aktiengesellschaft, priority 2014, dated 2018).

Legend:
IDH1 R132H enzyme = IDH1 R132H enzyme (Homo sapiens (Human), UniProt O75874, R132H); assay: Mutant IDH1 R132H biochemical assay; conditions: NADPH consumption, luminescent readout; 1.5 nM enzyme, 250 μM α-KG, 1 μM NADPH, 30 minutes, 32° C.; test range 0.002-10 μM
Description: mIDH1 catalyzes the NADPH-dependent reduction of alpha-ketoglutarate (α-KG) to (2R)-2-hydroxyglutarate (2-HG). NADPH consumption was measured by luminescent readout.
The biochemical reactions were performed at 32° C. in 384-well plates using a reaction volume of 41 μl and the following assay buffer conditions: 50 mM Tris pH 7.5, 100 mM NaCl, 20 mM MgCl2, 0.05% BSA, 0.01% Brij, 1 μM NADPH, and 250 μM α-KG. […] Test compounds were used in a concentration range between 0.002 and 10 μM. The final DMSO concentration was 2.4%.
The reaction was incubated for 30 minutes, then 40 μl of detection mix (0.75 μg/ml Luciferase, 0.02 U/ml Oxidoreductase, 4 μg/ml FMN, 2 μl/ml Decanal/Ethanol, 50 mM Tris pH 7.5, 0.5% Glycerin, 0.01% Tween-20, 0.05% BSA) was added. Luminescence was measured on a luminescent reader (10 seconds measuring time, 1 second integration period, 30% sensitivity). The decrease in luminescence is proportional to mIDH1 activity. IC50 values are determined by interpolation from plots of relative luminescence versus inhibitor concentration.

[1] = molecular target: mutated isocitrate dehydrogenase (mIDH) protein overexpressed in LN229 R132H cells (Homo sapiens (Human), UniProt O75874, R132H); assay: Mutant IDH1 cellular assay (2-HG in medium of LN229 R132H cells); type: cell-based; conditions: 24 hours, fluorescence readout
Description: Mutant IDH1 Cellular Assay
Levels of (2R)-2-hydroxyglutarate (2HG) were measured in medium of a cell line with overexpression of mutated isocitrate dehydrogenase (mIDH) protein. mIDH catalyzes the NADPH-dependent reduction of alpha-ketoglutarate to 2-HG. Cells (LN229 R132H, Mohrenz et al., Apoptosis (2013) 18:1416-1425) were grown in DMEM containing 10% FCS. They were harvested by trypsin and seeded into 96-well plates. Cells were incubated overnight at 37° C. in 5% CO2. The next day test compounds were added to each cell well. The final concentration of DMSO was 0.1% and DMSO controls were included. The plates were then placed in an incubator for 24 hours.
2-HG was measured according to Balss et al. (Acta Neuropathol (2012) 124: 883-891). Briefly, HClO4 was added to each well and the plates were centrifuged. Aliquots are removed and incubated with hydroxyglutarate dehydrogenase (HGDH), diaphorase, NAD+, and resazurin. The conversion of resazurin to resorufin was detected by fluorescence spectroscopy at Ex 540 nm Em 600 nm. The increase in fluorescence is proportional to 2-HG production. IC50 values are determined by interpolation from plots of relative fluorescence vs inhibitor concentration.

mutated isocitrate dehydrogenase (mIDH) protein overexpressed in LN229 R132H cells, sequence (O75874 whole entry R132H): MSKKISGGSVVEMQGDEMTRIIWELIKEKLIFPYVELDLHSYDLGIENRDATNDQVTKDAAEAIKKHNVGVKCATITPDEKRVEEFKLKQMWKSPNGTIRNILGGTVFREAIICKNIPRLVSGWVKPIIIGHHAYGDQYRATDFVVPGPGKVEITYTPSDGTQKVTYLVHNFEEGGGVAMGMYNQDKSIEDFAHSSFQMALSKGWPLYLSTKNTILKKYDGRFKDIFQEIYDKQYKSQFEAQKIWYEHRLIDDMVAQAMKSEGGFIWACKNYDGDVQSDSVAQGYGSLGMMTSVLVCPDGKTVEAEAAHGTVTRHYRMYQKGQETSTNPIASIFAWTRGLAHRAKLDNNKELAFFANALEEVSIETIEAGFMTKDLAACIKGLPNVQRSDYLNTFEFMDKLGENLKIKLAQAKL
IDH1 R132H enzyme, sequence (O75874 whole entry R132H): as above

SMILES	IC50 (IDH1 R132H enzyme)	IC50 [1]
C[C@H]1C[C@@H](n2c(Nc3ccc(OC(F)(F)F)cc3)nc3cc(-c4cnn(C)c4)ccc32)CC(C)(C)C1 (stereo in doubt) [Example 2-13]	1.1 µM	5 µM
Cc1nn(C)c(C)c1-c1ccc2c(c1)nc(Nc1ccc(OC(F)(F)F)cc1)n2[C@@H]1C[C@H](C)CC(C)(C)C1 (stereo in doubt) [Example 2-19]	1.9 µM	10 µM
Cc1noc(C)c1-c1ccc2c(c1)nc(Nc1ccc(SC(F)(F)F)cc1)n2[C@@H]1C[C@H](C)CC(C)(C)C1 (stereo in doubt) [Example 2-21-1]	1.1 µM	10 µM
Cc1noc(C)c1-c1ccc2c(c1)nc(Nc1ccc(SC(F)(F)F)cc1)n2[C@H]1C[C@@H](C)CC(C)(C)C1 (stereo in doubt) [Example 2-21-2]	0.29 µM	2.5 µM
C[C@H]1C[C@@H](n2c(Nc3ccc(SC(F)(F)F)cc3)nc3cc(-c4ccn[nH]4)ccc32)CC(C)(C)C1 (stereo in doubt) [Example 2-22]	0.77 µM	2.5 µM
Cc1noc(C)c1-c1ccc2c(c1)nc(Nc1ccc(C(F)(F)F)cc1)n2[C@H]1C[C@@H](C)CC(C)(C)C1 (stereo in doubt) [Example 2-23-2]	0.18 µM	10 µM
Cc1nc(-c2ccc3c(c2)nc(Nc2ccc(OC(F)(F)F)cc2)n3C2CC(C)(C)CC(C)(C)C2)no1 [Example 2-26, 5-(5-Methyl-1,2,4-oxadiazol-3-yl)-1-(3,3,5,5-tetramethylcyclohexyl)-N-[4-(trifluoromethoxy)phenyl]-1H-benzimidazol-2-amine]	0.22 µM	10 µM
Cc1cc2c(cc1-c1c(C)n[nH]c1C)nc(Nc1ccc(OC(F)(F)F)cc1)n2C1CC(C)(C)CC(C)(C)C1 [Example 2-29, 5-(3,5-dimethyl-1H-pyrazol-4-yl)-6-methyl-1-(3,3,5,5-tetramethylcyclohexyl)-N-[4-(trifluoromethoxy)phenyl]-1H-benzimidazol-2-amine]	4 µM	2.7 µM

Second part, the compound after the results:

IC50 (IDH1 R132H enzyme)	IC50 [1]	SMILES
0.14 µM	2 µM	Cc1n[nH]c(C)c1-c1ccc2c(c1)nc(Nc1ccc(SC(F)(F)F)cc1)n2[C@@H]1C[C@H](C)CC(C)(C)C1 (stereo in doubt) [Example 2-10]
0.21 µM	2.8 µM	C[C@H]1C[C@@H](n2c(Nc3ccc(OC(F)(F)F)cc3)nc3cc(-c4cccc(C(N)=O)c4)ccc32)CC(C)(C)C1 (stereo in doubt) [Example 2-11]
0.1 µM	8 µM	Cc1cc(-c2ccc3c(c2)nc(Nc2ccc(OC(F)(F)F)cc2)n3[C@@H]2C[C@H](C)CC(C)(C)C2)n(C)n1 (stereo in doubt) [Example 2-12]
0.14 µM	7 µM	Cc1n[nH]c(C)c1-c1ccc2c(c1)nc(Nc1ccc(C(F)(F)F)cc1)n2[C@H]1C[C@@H](C)CC(C)(C)C1 (stereo in doubt) [Example 2-24-2]
0.07 µM	0.2 µM	CC1(C)CC(n2c(Nc3ccc(OC(F)(F)F)cc3)nc3cc(-c4nnn[nH]4)ccc32)CC(C)(C)C1 [Example 2-28, 1-(3,3,5,5-tetramethylcyclohexyl)-5-(1H-tetrazol-5-yl)-N-[4-(trifluoromethoxy)-phenyl]-1H-benzimidazol-2-amine]
0.12 µM	1.5 µM	Cc1nnc(-c2cc3nc(Nc4ccc(OC(F)(F)F)cc4)n(C4CC(C)(C)CC(C)(C)C4)c3cc2C)[nH]1 [Example 2-30, 6-methyl-5-(5-methyl-4H-1,2,4-triazol-3-yl)-1-(3,3,5,5-tetramethylcyclohexyl)-N-[4-(trifluoromethoxy)phenyl]-1H-benzimidazol-2-amine]
0.014 µM	0.022 µM	Cc1cc2c(cc1C1OC(=O)NC1=O)nc(Nc1ccc(OC(F)(F)F)cc1)n2C1CC(C)(C)CC(C)(C)C1 (centres unmarked) [Example 2-36, 5-[6-methyl-1-(3,3,5,5-tetramethylcyclohexyl)-2-{[4-(trifluoromethoxy)phenyl]amino}-1H-benzimidazol-5-yl]-1,3-oxazolidine-2,4-dione]
0.03 µM	0.25 µM	Cc1cc2c(cc1-c1cc(O)no1)nc(Nc1ccc(OC(F)(F)F)cc1)n2C1CC(C)(C)CC(C)(C)C1 [Example 2-37, 5-[6-methyl-1-(3,3,5,5-tetramethylcyclohexyl)-2-{[4-(trifluoromethoxy)phenyl]amino}-1H-benzimidazol-5-yl]-1,2-oxazol-3-ol]
